Results as given in PMC10334278 (Journal of Pharmaceutical Analysis, 2023).

Target: T1, Recombinant human GSS (Homo sapiens, UniProt P48637)
T1 sequence (P48637 2-474): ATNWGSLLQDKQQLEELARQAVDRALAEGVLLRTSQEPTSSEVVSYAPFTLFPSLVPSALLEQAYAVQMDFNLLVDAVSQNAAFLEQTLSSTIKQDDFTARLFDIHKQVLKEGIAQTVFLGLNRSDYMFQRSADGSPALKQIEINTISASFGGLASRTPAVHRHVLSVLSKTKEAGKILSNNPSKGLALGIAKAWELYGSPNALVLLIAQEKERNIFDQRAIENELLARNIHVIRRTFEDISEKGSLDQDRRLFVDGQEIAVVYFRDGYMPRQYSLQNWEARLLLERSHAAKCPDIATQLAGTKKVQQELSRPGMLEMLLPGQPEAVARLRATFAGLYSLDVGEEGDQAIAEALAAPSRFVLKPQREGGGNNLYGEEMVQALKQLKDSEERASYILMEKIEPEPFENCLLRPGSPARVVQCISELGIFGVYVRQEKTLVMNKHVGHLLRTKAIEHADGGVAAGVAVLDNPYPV
Test: isothermal titration calorimetry
Format: binding

## N[C@@H](CCC(=O)N[C@@H](CS)C(=O)O)C(=O)O [γ-glutamylcysteine]
  Kd: 1.09 µM
